# Measurements: patent US10428062B2, “Geminal substituted aminobenzisoxazole compounds as agonists of α7-nicotinic acetylcholine receptors” (Forum Pharmaceuticals, Inc., priority 2015, dated 2019)
# Structures can show the parent of a compound that is named as a salt. Where two headings read alike, the source gives them in different places.
# How the values were obtained:
# [1] = biological target: T1, human 5-HT3 serotonin receptors (Homo sapiens, UniProt P46098); experiment: [3H]BRL 43694 competition binding assay (Cerep)
# T1 sequence (P46098 24-478): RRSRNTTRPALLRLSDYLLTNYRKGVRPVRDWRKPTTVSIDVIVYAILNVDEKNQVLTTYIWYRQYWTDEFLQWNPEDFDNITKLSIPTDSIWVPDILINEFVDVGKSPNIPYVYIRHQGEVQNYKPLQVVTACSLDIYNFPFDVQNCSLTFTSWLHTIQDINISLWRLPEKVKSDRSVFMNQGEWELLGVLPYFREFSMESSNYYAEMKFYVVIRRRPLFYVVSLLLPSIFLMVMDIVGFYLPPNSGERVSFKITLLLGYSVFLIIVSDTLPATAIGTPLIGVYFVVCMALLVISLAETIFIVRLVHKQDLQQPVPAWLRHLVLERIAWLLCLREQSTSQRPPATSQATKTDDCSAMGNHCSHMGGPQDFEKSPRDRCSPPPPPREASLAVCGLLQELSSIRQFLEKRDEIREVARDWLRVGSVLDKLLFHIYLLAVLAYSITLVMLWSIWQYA
# human α7 nAChR = human α7 nAChR (Homo sapiens, UniProt P36544); assay type: binding; conditions: above described assay provided by Cerep
# [2] = biological target: recombinantly expressed human α7-nAChR (Homo sapiens, UniProt P36544); conditions: [125I] α-BTX radioligand, Feuerbach et al., Br. J. Pharmacol., 2014, read-out: Ki (lit); cited from earlier work
# [3] = CHO cell membranes expressing human 5-HT3 receptors, [3H]BRL 43694, 120 min at room temperature, read-out: h-5HT3 Ki
# human α7 nAChR, sequence (P36544 23-502): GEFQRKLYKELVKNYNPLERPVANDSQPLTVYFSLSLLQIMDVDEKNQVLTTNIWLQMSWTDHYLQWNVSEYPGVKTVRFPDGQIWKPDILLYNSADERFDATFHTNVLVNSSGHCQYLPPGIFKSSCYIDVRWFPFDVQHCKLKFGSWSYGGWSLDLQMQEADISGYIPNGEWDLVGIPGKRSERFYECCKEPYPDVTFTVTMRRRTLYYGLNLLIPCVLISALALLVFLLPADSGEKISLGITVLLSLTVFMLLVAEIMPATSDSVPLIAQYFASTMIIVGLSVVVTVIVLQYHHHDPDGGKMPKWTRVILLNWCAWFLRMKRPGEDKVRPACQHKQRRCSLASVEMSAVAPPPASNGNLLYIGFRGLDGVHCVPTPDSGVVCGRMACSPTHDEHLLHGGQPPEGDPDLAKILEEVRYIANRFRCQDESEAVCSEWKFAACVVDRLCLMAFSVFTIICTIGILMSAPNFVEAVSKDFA
# recombinantly expressed human α7-nAChR, sequence (P36544 23-502): as above
SMILES,"Ki [1, 3] [nM]",also measured
"CC1(C)[C@H](Nc2noc3c(C(F)(F)F)c(Cl)ccc23)C2CCN1CC2 [Compound (R)-14, (R)-6-chloro-N-(2,2-dimethylquinuclidin-3-yl)-7-(trifluoromethyl)benzo[d]isoxazol-3-amine hydrochloride]",> 10000,–
"Cc1cc2onc(N[C@@H]3C4CCN(CC4)C3(C)C)c2cc1F [Compound (R)-9, (R)—N-(2,2-dimethylquinuclidin-3-yl)-5-fluoro-6-methylbenzo[d]isoxazol-3-amine hydrochloride]",> 10000,–
"Cc1ccc2c(N[C@@H]3C4CCN(CC4)C3(C)C)noc2c1F [Compound (R)-7, (R)—N-(2,2-dimethylquinuclidin-3-yl)-7-fluoro-6-methylbenzo[d]isoxazol-3-amine hydrochloride]",2100,–
"CC1(C)C(Nc2noc3cc(Cl)ccc23)C2CCN1CC2 (racemic) [rac-1, 6-chloro-N-(2,2-dimethylquinuclidin-3-yl)benzo[d]isoxazol-3-amine hydrochloride]",2700,–
"COc1c(Cl)ccc2c(N[C@@H]3C4CCN(CC4)C3(C)C)noc12 [Compound (R)-5, (R)-6-chloro-N-(2,2-dimethylquinuclidin-3-yl)-7-methoxybenzo[d]isoxazol-3-amine hydrochloride]",450,–
"CCOc1c(Cl)ccc2c(N[C@@H]3C4CCN(CC4)C34CC4)noc12 [Compound (R)-27, (R)-6-chloro-7-ethoxy-N-(1′-azaspiro[cyclopropane-1,2′-bicyclo[2.2.2]octan]-3′-yl)benzo[d]isoxazol-3-amine hydrochloride]",5600,–
"Fc1ccc2c(N[C@@H]3C4CCN(CC4)C34CC4)noc2c1Cl [Compound (R)-23, (R)-7-chloro-6-fluoro-N-(1′-azaspiro[cyclopropane-1,2′-bicyclo[2.2.2]octan]-3′-yl)benzo[d]isoxazol-3-amine hydrochloride]",110,–
"COc1c(Cl)ccc2c(N[C@@H]3C4CCN(CC4)C34CC4)noc12 [Compound (R)-20, (R)-6-chloro-7-methoxy-N-(1′-azaspiro[cyclopropane-1,2′-bicyclo[2.2.2]octan]-3′-yl)benzo[d]isoxazol-3-amine hydrochloride]",200,–
"Cc1ccc2c(N[C@@H]3C4CCN(CC4)C34CC4)noc2c1Cl [Compound (R)-28, (R)-7-chloro-6-methyl-N-(1′-azaspiro[cyclopropane-1,2′-bicyclo[2.2.2]octan]-3′-yl)benzo[d]isoxazol-3-amine hydrochloride]",–,Ki [1]: 66 nM
"CC1(C)[C@H](Nc2noc3cc(Cl)ccc23)C2CCN1CC2 [Compound (R)-1, (R)-6-chloro-N-(2,2-dimethylquinuclidin-3-yl)benzo[d]isoxazol-3-amine]",2600,–
"Fc1c(Cl)ccc2c(N[C@@H]3C4CCN(CC4)C34CC4)noc12 [Compound (R)-17, (R)-6-chloro-7-fluoro-N-(1′-azaspiro[cyclopropane-1,2′-bicyclo[2.2.2]octan]-3′-yl)benzo[d]isoxazol-3-amine hydrochloride]",920,–
"CC1(C)[C@H](Nc2noc3c(F)c(Cl)ccc23)C2CCN1CC2 [Compound (R)-2, (R)-6-chloro-N-(2,2-dimethylquinuclidin-3-yl)-7-fluorobenzo[d]isoxazol-3-amine hydrochloride]",3150,–
"Cc1ccc2c(N[C@@H]3C4CCN(CC4)C34CC4)noc2c1 [Compound (R)-21, (R)-6-methyl-N-(1′-azaspiro[cyclopropane-1,2′-bicyclo[2.2.2]octan]-3′-yl) benzo[d]isoxazol-3-amine hydrochloride]",1600,–
"CC1(C)[C@H](Nc2noc3cc(Cl)c(F)cc23)C2CCN1CC2 [Compound (R)-11, (R)-6-chloro-N-(2,2-dimethylquinuclidin-3-yl)-5-fluorobenzo[d]isoxazol-3-amine hydrochloride]",> 10000,–
"Cc1cc2onc(N[C@@H]3C4CCN(CC4)C34CC4)c2cc1F [Compound (R)-24, (R)-5-fluoro-6-methyl-N-(1′-azaspiro[cyclopropane-1,2′-bicyclo[2.2.2]octan]-3′-yl) benzo[d]isoxazol-3-amine hydrochloride]",3100,–
"Clc1ccc2c(N[C@@H]3C4CCN(CC4)C34CC4)noc2c1Cl [(R)-19, (R)-6,7-dichloro-N-(1′-azaspiro[cyclopropane-1,2′-bicyclo[2.2.2]octan]-3′-yl)benzo[d]isoxazol-3-amine hydrochloride]",–,Ki [1]: 100 nM

SMILES,"Ki [1, 3] [nM]",also measured
"CC1(C)[C@H](Nc2noc3c(Cl)c(F)ccc23)C2CCN1CC2 [Compound (R)-8, (R)-7-chloro-N-(2,2-dimethylquinuclidin-3-yl)-6-fluorobenzo[d]isoxazol-3-amine hydrochloride]",170,–
"Fc1cc2c(N[C@@H]3C4CCN(CC4)C34CC4)noc2cc1Cl [Compound (R)-26, (R)-6-chloro-5-fluoro-N-(1′-azaspiro[cyclopropane-1,2′-bicyclo[2.2.2]octan]-3′-yl)benzo[d]isoxazol-3-amine hydrochloride]",2800,–
"Clc1ccc2c(N[C@@H]3C4CCN(CC4)C34CC4)noc2c1 [Compound (R)-16, (R)-6-chloro-N-(1′-azaspiro[cyclopropane-1,2′-bicyclo[2.2.2]octan]-3′-yl)benzo[d]isoxazol-3-amine]",1630,–
"Cc1c(Cl)ccc2c(N[C@@H]3C4CCN(CC4)C34CC4)noc12 [Compound (R)-25, (R)-6-chloro-7-methyl-N-(1′-azaspiro[cyclopropane-1,2′-bicyclo[2.2.2]octan]-3′-yl)benzo[d]isoxazol-3-amine hydrochloride]",170,–
"Cc1ccc2c(N[C@@H]3C4CCN(CC4)C3(C)C)noc2c1 [Compound (R)-6, (R)—N-(2,2-dimethylquinuclidin-3-yl)-6-methylbenzo[d]isoxazol-3-amine hydrochloride]",3500,–
"Clc1ccc2c(NC3C4CCN(CC4)C34CC4)noc2c1 (racemic) [rac-16, 6-chloro-N-(1′-azaspiro[cyclopropane-1,2′-bicyclo[2.2.2]octan]-3′-yl)benzo[d]isoxazol-3-amine hydrochloride]",–,Ki [1]: 1800 nM
"COc1ccc2c(N[C@@H]3C4CCN(CC4)C3(C)C)noc2c1 [Compound (R)-3, (R)—N-(2,2-dimethylquinuclidin-3-yl)-6-methoxybenzo[d]isoxazol-3-amine hydrochloride]",> 10000,–
"FC(F)(F)c1c(Cl)ccc2c(N[C@@H]3C4CCN(CC4)C34CC4)noc12 [Compound (R)-29, (R)-6-chloro-N-(1′-azaspiro[cyclopropane-1,2′-bicyclo[2.2.2]octan]-3′-yl)-7-(trifluoromethyl)benzo[d]isoxazol-3-amine hydrochloride]",4300,–
"Cc1c(Cl)ccc2c(N[C@@H]3C4CCN(CC4)C3(C)C)noc12 [Compound (R)-10, (R)-6-chloro-N-(2,2-dimethylquinuclidin-3-yl)-7-methylbenzo[d]isoxazol-3-amine hydrochloride]",380,–
"Cc1ccc2c(N[C@@H]3C4CCN(CC4)C34CC4)noc2c1F [Compound (R)-22, (R)-7-fluoro-6-methyl-N-(1′-azaspiro[cyclopropane-1,2′-bicyclo[2.2.2]octan]-3′-yl)benzo[d]isoxazol-3-amine hydrochloride]",540,–
"CCOc1c(Cl)ccc2c(N[C@@H]3C4CCN(CC4)C3(C)C)noc12 [Compound (R)-12, (R)-6-chloro-N-(2,2-dimethylquinuclidin-3-yl)-7-ethoxybenzo[d]isoxazol-3-amine hydrochloride]",> 10000,–
"COc1ccc2c(N[C@@H]3C4CCN(CC4)C34CC4)noc2c1 [Compound (R)-18, (R)-6-methoxy-N-(1′-azaspiro[cyclopropane-1,2′-bicyclo[2.2.2]octan]-3′-yl)benzo[d]isoxazol-3-amine hydrochloride]",> 10000,–
"CC1(C)[C@H](Nc2noc3c(Cl)c(Cl)ccc23)C2CCN1CC2 [Compound (R)-4, (R)-6,7-dichloro-N-(2,2-dimethylquinuclidin-3-yl)benzo[d]isoxazol-3-amine hydrochloride]",130,–
Cc1ccc(-c2ccc(OC3CN4CCC3CC4)cn2)cc1 (centres unmarked) [AQW051],–,Ki (human α7 nAChR): 255 nM; Ki [2]: 28 nM
"Cc1ccc2c(N[C@@H]3C4CCN(CC4)C3(C)C)noc2c1Cl [Compound (R)-13, (R)-7-chloro-N-(2,2-dimethylquinuclidin-3-yl)-6-methylbenzo[d]isoxazol-3-amine hydrochloride]",150,–
